Test results from patent US20080009418A1, “Selective Inhibitors” (Alchemia LTD., priority 2004, published 2008).

What was measured:
Human δ-opioid (DOP) = target: T1, Human δ-opioid (DOP) (Homo sapiens, UniProt P41143); test: Radioligand binding, human δ-opioid (DOP) membranes, FlashPlate, [3H]-Bremazocine; details: compound at 10 μM, [3H]-Bremazocine
T1 construct: purchased Perkin Elmer Biosignal
Summary of the method: (§1)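 Cloned human receptor membranes were coated onto FlashPlate wells and incubated with radioligand and compound (added from a 0.5 mM DMSO daughter plate) for 1 hour at room temperature in the dark. Scintillation counting gave percent inhibition, with DMSO defining total and reference ligand defining non-specific binding.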

Human κ-Opioid (KOP) = target: T2, Human κ-Opioid (KOP) (Homo sapiens, UniProt P41145); test: Radioligand binding, human κ-opioid (KOP) membranes, filtration, [3H]-Diprenorphine; details: compound at 10 μM, [3H]-Diprenorphine
T2 construct: purchased Perkin Elmer Biosignal
Summary of the method: (§2)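 Filtration binding on cloned human receptor membranes (1 Unit/well), [125I]-Substance P for NK1 and [3H]-Diprenorphine for KOP, 1 h at room temperature. Filters PEI-presoaked, washed with cold 50 mM Tris-HCl pH 7.4, counted by scintillation; percent inhibition calculated, reference ligand defining non-specific binding.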

Human Melanocortin (MC3) = target: T3, Human Melanocortin (MC3) (Homo sapiens, UniProt P41968); test: Radioligand binding, human melanocortin MC3 membranes, FlashPlate, [125I]-NDP-αMSH; details: compound at 10 μM, [125I]-NDP-αMSH
T3 construct: purchased Perkin Elmer Biosignal
Summary of the method: as §1

Human Melanocortin (MC4) = target: T4, Human Melanocortin (MC4) (Homo sapiens, UniProt P32245); test: Radioligand binding, human melanocortin MC4 membranes, FlashPlate, [125I]-NDP-αMSH; details: compound at 10 μM, [125I]-NDP-αMSH
T4 construct: purchased Perkin Elmer Biosignal
Summary of the method: as §1

Human melanocortin (MC5) = target: T5, Human melanocortin (MC5) (Homo sapiens, UniProt P33032); test: Radioligand binding, human melanocortin MC5 membranes, FlashPlate, [125I]-NDP-αMSH; details: compound at 10 μM, [125I]-NDP-αMSH
T5 construct: purchased Perkin Elmer Biosignal
Summary of the method: as §1

[1] = target: T6, Human melanin-concentrating hormone (MCH1) (Homo sapiens, UniProt Q99705); test: Radioligand binding, human melanin-concentrating hormone MCH1 membranes, FlashPlate, [125I]-S36057; details: compound at 10 μM
T6 construct: purchased Perkin Elmer Biosignal
Summary of the method: as §1

Human μ-opioid (MOP) = target: T7, Human μ-opioid (MOP) (Homo sapiens, UniProt P35372); test: Radioligand binding, human μ-opioid (MOP) membranes, FlashPlate, [3H]-Naloxone; details: compound at 10 μM, [3H]-Naloxone
T7 construct: purchased Perkin Elmer Biosignal
Summary of the method: as §1

Human neurokinin (NK1) = target: T8, Human neurokinin (NK1) (Homo sapiens, UniProt P25103); test: Radioligand binding, human neurokinin NK1 membranes, filtration, [125I]-Substance P; details: compound at 10 μM, [125I]-Substance P
T8 construct: purchased Perkin Elmer Biosignal
Summary of the method: as §2

[2] = target: T9, Human neuropeptide Y (NPY-Y1) (Homo sapiens, UniProt P25929); test: Radioligand binding, human neuropeptide Y NPY-Y1 membranes, FlashPlate, [125I]-PYY; details: compound at 10 μM, [125I]-PYY
T9 construct: purchased Perkin Elmer Biosignal
T9 sequence (P25929 1-384): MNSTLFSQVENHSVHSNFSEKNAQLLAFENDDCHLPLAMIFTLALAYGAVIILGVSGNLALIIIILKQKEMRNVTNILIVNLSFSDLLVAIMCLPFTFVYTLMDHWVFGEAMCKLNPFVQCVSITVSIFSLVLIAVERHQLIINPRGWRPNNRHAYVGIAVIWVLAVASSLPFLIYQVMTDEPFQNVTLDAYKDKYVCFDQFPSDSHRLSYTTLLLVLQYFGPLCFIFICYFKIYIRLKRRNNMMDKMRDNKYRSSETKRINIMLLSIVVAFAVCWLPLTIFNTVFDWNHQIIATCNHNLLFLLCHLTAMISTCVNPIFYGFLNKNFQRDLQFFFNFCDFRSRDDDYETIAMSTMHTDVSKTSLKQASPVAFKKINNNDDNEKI
Summary of the method: as §1

Human opioid (ORL1) = target: T10, Human opioid (ORL1) (Homo sapiens, UniProt P41146); test: Radioligand binding, human opioid ORL1 membranes, FlashPlate, [125I]-Nociceptin; details: compound at 10 μM, [125I]-Nociceptin
T10 construct: purchased Perkin Elmer Biosignal
Summary of the method: as §1

Mouse urotensin (mUR2) = target: T11, Mouse urotensin (mUR2) (Mus musculus, UniProt Q8VIH9); test: Radioligand binding, mouse urotensin mUR2 membranes, FlashPlate, [125I]-Urotensin II; details: compound at 10 μM, [125I]-Urotensin II
T11 construct: purchased Perkin Elmer Biosignal
T11 sequence (Q8VIH9 1-385): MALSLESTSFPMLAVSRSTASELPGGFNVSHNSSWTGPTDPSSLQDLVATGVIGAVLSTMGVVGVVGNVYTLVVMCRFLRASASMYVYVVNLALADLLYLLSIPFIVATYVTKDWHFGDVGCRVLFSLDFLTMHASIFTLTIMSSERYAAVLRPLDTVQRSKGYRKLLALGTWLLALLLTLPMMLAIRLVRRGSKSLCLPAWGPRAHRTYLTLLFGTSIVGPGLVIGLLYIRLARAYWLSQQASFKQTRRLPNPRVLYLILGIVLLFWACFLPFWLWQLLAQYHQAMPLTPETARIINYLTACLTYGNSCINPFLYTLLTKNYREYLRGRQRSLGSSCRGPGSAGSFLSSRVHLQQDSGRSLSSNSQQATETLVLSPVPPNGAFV
Summary of the method: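 Cloned mouse urotensin (mUR2) receptor membranes from Perkin Elmer Biosignal were immobilized in FlashPlate microplates using a proprietary coating. Each well got 19.5 μl buffer, then 0.5 μl of DMSO, reference ligand, or compound. Adding 5 μl of [125I]-Urotensin II, diluted to 5× final concentration in binding buffer, started binding. Plates were sealed with TopSeal-A and incubated 1 hour at room temperature in the dark. Wells were counted for 30 seconds each on a TopCount after a 60-second delay, and percentage inhibition was calculated.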

T4 sequence (P32245 whole entry): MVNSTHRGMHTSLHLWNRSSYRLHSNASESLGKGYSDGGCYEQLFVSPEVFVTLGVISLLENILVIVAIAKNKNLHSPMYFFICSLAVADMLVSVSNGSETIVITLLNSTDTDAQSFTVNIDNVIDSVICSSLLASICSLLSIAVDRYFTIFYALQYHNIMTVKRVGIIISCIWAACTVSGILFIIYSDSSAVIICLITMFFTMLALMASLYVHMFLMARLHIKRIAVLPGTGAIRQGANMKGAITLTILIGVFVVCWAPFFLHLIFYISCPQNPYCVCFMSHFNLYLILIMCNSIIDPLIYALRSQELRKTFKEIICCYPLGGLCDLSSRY
T6 sequence (Q99705 whole entry): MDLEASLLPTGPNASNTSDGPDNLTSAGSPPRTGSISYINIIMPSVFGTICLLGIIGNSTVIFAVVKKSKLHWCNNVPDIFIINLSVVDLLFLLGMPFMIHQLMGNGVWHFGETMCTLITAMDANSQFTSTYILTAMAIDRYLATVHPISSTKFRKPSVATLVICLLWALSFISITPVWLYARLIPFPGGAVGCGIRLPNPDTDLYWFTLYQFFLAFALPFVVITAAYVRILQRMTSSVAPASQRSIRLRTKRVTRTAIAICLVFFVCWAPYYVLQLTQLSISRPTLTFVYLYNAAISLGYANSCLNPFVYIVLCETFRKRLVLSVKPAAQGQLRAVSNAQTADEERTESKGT
T5 sequence (P33032 whole entry): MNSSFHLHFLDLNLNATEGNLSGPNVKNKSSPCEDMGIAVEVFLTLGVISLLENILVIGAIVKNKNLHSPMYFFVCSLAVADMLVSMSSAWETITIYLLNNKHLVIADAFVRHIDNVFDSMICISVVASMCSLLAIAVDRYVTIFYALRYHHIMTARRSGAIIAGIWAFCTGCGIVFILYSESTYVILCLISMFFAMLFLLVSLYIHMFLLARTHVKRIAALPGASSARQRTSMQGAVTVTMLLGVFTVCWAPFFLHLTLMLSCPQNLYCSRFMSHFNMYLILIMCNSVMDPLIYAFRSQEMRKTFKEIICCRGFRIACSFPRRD
T10 sequence (P41146 whole entry): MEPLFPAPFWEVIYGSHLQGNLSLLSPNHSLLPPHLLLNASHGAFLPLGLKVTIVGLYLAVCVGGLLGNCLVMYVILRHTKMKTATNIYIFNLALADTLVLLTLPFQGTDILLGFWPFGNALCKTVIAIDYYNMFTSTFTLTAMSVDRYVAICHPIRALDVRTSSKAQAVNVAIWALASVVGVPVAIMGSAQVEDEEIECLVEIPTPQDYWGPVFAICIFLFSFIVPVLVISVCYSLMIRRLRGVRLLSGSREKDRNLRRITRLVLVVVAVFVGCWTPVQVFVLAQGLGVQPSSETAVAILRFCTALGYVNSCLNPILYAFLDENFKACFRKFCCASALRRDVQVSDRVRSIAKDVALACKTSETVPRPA
T7 sequence (P35372 whole entry): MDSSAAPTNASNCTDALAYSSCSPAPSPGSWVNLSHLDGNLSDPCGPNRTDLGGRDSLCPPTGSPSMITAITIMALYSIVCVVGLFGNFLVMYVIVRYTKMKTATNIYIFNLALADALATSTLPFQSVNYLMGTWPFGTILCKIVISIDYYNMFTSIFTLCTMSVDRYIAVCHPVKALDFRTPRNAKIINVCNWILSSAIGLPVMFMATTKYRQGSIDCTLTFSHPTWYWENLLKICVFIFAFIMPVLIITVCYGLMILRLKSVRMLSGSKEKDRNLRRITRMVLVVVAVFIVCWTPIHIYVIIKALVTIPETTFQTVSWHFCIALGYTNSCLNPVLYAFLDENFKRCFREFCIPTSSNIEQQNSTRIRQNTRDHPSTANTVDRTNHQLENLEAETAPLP
T2 sequence (P41145 whole entry): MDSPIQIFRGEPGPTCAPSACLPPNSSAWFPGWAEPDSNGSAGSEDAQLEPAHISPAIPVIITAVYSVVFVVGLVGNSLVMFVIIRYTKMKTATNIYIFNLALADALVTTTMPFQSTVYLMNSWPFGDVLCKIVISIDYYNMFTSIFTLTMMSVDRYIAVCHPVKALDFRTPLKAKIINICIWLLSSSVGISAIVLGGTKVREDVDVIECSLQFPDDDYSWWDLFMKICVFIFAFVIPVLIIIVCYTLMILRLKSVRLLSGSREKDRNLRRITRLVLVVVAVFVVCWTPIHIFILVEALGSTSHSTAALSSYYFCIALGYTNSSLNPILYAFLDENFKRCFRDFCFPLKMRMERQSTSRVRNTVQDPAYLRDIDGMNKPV
T8 sequence (P25103 whole entry): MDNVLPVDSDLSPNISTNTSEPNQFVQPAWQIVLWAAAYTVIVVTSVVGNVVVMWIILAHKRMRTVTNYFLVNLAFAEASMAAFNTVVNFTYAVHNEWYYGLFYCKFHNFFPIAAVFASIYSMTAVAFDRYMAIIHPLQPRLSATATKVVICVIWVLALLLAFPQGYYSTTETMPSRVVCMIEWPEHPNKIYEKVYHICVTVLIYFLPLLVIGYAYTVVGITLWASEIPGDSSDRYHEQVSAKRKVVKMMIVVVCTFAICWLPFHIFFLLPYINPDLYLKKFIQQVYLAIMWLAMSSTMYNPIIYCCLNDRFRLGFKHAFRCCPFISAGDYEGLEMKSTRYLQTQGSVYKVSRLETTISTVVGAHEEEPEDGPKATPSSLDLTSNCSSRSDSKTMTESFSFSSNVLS
T1 sequence (P41143 whole entry): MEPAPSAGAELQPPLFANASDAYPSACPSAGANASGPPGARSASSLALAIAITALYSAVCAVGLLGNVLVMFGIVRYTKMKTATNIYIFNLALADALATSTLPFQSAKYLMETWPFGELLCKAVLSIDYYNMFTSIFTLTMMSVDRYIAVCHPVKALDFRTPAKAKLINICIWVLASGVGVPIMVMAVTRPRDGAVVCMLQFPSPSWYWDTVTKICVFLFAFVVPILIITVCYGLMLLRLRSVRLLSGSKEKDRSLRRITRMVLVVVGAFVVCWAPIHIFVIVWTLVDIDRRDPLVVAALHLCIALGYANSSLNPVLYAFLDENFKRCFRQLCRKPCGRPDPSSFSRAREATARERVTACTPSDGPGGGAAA
T3 sequence (P41968 whole entry): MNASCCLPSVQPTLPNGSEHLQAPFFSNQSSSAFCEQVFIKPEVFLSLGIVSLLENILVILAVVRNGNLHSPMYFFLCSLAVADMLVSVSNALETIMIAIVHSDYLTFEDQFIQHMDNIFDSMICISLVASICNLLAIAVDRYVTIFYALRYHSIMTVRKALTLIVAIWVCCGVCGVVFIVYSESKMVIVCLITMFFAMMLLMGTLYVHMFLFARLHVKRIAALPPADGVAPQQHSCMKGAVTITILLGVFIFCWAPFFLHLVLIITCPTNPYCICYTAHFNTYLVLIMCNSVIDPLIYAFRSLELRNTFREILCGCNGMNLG

| SMILES | A1: inhibition of radioligand binding, human δ-opioid (DOP) (Human δ-opioid (DOP)) | A2: inhibition of radioligand binding, human κ-opioid (KOP) (Human κ-Opioid (KOP)) | A3: inhibition of radioligand binding, human melanocortin (MC3) (Human Melanocortin (MC3)) | A4: inhibition of radioligand binding, human melanocortin (MC4) (Human Melanocortin (MC4)) | A5: inhibition of radioligand binding, human melanocortin (MC5) (Human melanocortin (MC5)) | A6: inhibition of radioligand binding, human melanin-concentrating hormone (MCH1) ([1]; [125I]-S36057) | A7: inhibition of radioligand binding, human μ-opioid (MOP) (Human μ-opioid (MOP)) | A8: inhibition of radioligand binding, human neurokinin (NK1) (Human neurokinin (NK1)) | A9: inhibition of radioligand binding, human neuropeptide Y (NPY-Y1) [2] | A10: inhibition of radioligand binding, human opioid (ORL1) (Human opioid (ORL1)) | A11: inhibition of radioligand binding, mouse urotensin (mUR2) (Mouse urotensin (mUR2)) | other results |
| --- | --- | --- | --- | --- | --- | --- | --- | --- | --- | --- | --- | --- |
| NCCCC(=O)NC1C(OCc2ccc3ccccc3c2)OC(COCc2ccccc2)C(O)C1OCc1ccc2ccccc2c1 (stereo not shown) [compound 462] |  |  |  |  |  |  |  |  |  |  |  | A1: inhibition of radioligand binding (Human δ-opioid (DOP); human DOP membranes): − (“−” indicates less than 50% inhibition at 10 μM); A2: inhibition of radioligand binding (Human κ-Opioid (KOP); human KOP membranes): − (“−” indicates less than 50% inhibition at 10 μM); A3: inhibition of radioligand binding (Human Melanocortin (MC3); human MC3 membranes, 10 µM): − (“−” indicates less than 50% inhibition at 10 μM); A4: inhibition of radioligand binding (Human Melanocortin (MC4); human MC4 membranes, 10 µM): − (“−” indicates less than 50% inhibition at 10 μM); A5: inhibition of radioligand binding (Human melanocortin (MC5); human MC5 membranes): + (“+” indicates greater than 50% inhibition at 10 μM); A6: inhibition of radioligand binding ([1]; [125I]-S36057, human MCH1 membranes): − (“−” indicates less than 50% inhibition at 10 μM); A7: inhibition of radioligand binding (Human μ-opioid (MOP); human MOP membranes): − (“−” indicates less than 50% inhibition at 10 μM); A8: inhibition of radioligand binding (Human neurokinin (NK1); human NK1 membranes): + (“+” indicates greater than 50% inhibition at 10 μM); A9: inhibition of radioligand binding ([2]; human NPY-Y1 membranes): − (“−” indicates less than 50% inhibition at 10 μM); A10: inhibition of radioligand binding (Human opioid (ORL1); human ORL1 membranes, 10 µM): + (“+” indicates greater than 50% inhibition at 10 μM); A11: inhibition of radioligand binding (Mouse urotensin (mUR2); mouse mUR2 membranes): − (“−” indicates less than 50% inhibition at 10 μM) |
| NCC(=O)NC1O[C@H](CO)[C@@H](O)[C@H](OCc2ccccc2)[C@H]1NC(=O)c1ccccc1 (stereo partly shown) [compound 360] | − (“−” indicates less than 50% inhibition at 10 μM) | − (“−” indicates less than 50% inhibition at 10 μM) | − (“−” indicates less than 50% inhibition at 10 μM) | + (“+” indicates greater than 50% inhibition at 10 μM) | − (“−” indicates less than 50% inhibition at 10 μM) | − (“−” indicates less than 50% inhibition at 10 μM) | − (“−” indicates less than 50% inhibition at 10 μM) | − (“−” indicates less than 50% inhibition at 10 μM) | − (“−” indicates less than 50% inhibition at 10 μM) | − (“−” indicates less than 50% inhibition at 10 μM) | − (“−” indicates less than 50% inhibition at 10 μM) |  |
| COCC1OC(OCc2ccccc2)C(NC(=O)CCCN)C(OCc2ccc(Cl)cc2)C1O (stereo not shown) [compound 180] |  |  |  |  |  |  |  |  |  |  |  | A1 radioligand binding, percentage inhibition (Human δ-opioid (DOP)): − (“−” indicates less than 50% inhibition at 10 μM); A2 radioligand binding, percentage inhibition (Human κ-Opioid (KOP)): − (“−” indicates less than 50% inhibition at 10 μM); A3 radioligand binding, percentage inhibition (Human Melanocortin (MC3)): − (“−” indicates less than 50% inhibition at 10 μM); A4 radioligand binding, percentage inhibition (Human Melanocortin (MC4)): − (“−” indicates less than 50% inhibition at 10 μM); A5 radioligand binding, percentage inhibition (Human melanocortin (MC5)): − (“−” indicates less than 50% inhibition at 10 μM); A6 radioligand binding, percentage inhibition ([1]; [125I]-S36057): − (“−” indicates less than 50% inhibition at 10 μM); A7 radioligand binding, percentage inhibition (Human μ-opioid (MOP)): − (“−” indicates less than 50% inhibition at 10 μM); A8 radioligand binding, percentage inhibition (Human neurokinin (NK1)): + (“+” indicates greater than 50% inhibition at 10 μM); A9 radioligand binding, percentage inhibition [2]: − (“−” indicates less than 50% inhibition at 10 μM); A10 radioligand binding, percentage inhibition (Human opioid (ORL1)): − (“−” indicates less than 50% inhibition at 10 μM); A11 radioligand binding, percentage inhibition (Mouse urotensin (mUR2)): − (“−” indicates less than 50% inhibition at 10 μM) |
| CSC1O[C@H](COCc2ccc3ccccc3c2)[C@@H](O)[C@@H](OCc2ccc(-c3ccccc3)cc2)[C@H]1NC(=O)CCCN (stereo partly shown) [compound 299] | − (“−” indicates less than 50% inhibition at 10 μM) | − (“−” indicates less than 50% inhibition at 10 μM) | − (“−” indicates less than 50% inhibition at 10 μM) | + (“+” indicates greater than 50% inhibition at 10 μM) | − (“−” indicates less than 50% inhibition at 10 μM) | − (“−” indicates less than 50% inhibition at 10 μM) | − (“−” indicates less than 50% inhibition at 10 μM) | + (“+” indicates greater than 50% inhibition at 10 μM) | − (“−” indicates less than 50% inhibition at 10 μM) | − (“−” indicates less than 50% inhibition at 10 μM) | − (“−” indicates less than 50% inhibition at 10 μM) |  |
| CSC1OC(COCc2ccc(Cl)cc2)C(O)C(OCc2ccc3ccccc3c2)C1NC(=O)CCCNC(=N)N (stereo not shown) [compound 311] | − (“−” indicates less than 50% inhibition at 10 μM) | − (“−” indicates less than 50% inhibition at 10 μM) | − (“−” indicates less than 50% inhibition at 10 μM) | + (“+” indicates greater than 50% inhibition at 10 μM) | + (“+” indicates greater than 50% inhibition at 10 μM) | − (“−” indicates less than 50% inhibition at 10 μM) | − (“−” indicates less than 50% inhibition at 10 μM) | + (“+” indicates greater than 50% inhibition at 10 μM) | − (“−” indicates less than 50% inhibition at 10 μM) | − (“−” indicates less than 50% inhibition at 10 μM) | − (“−” indicates less than 50% inhibition at 10 μM) |  |
